Columns and labels:
Assay type in all cases: in vivo
[1] = test system: male mice (ICR); experiment: Muscle relaxation activity by grip strength test (forelimbs); conditions: intraperitoneal; for ED50: Mus musculus, ip; for Grip strength, percentage compared to the vehicle only (100%): dose 200 (unit not given)
Experimental: (§1) For testing, male mice (ICR) were purchased from ORIENT BIO INC. (Korea), divided into several groups with 6 mice in each group, and were adapted for 4-5 days. The mice having the weight ranging from 19 g to 26 g were employed for the test. The pharmacological effect of the test compounds on muscle relaxation was evaluated by Rotarod test, grip strength test, and muscular force (wire hang) test. All mice were adapted to the test environment at one hour before starting the tests. The pharmacological effects of all the test compounds were evaluated by administration through peritoneal cavity of the mice (10 ul/g, bw).
The test was conducted before and after administration of the compounds to evaluate the effects thereof. […] The mouse was made to grip the rod with its forelimbs, and its tail was pulled, where the force at which the mouse detached from the rod was recorded. The instrument indicated the force in grams. All of the mice were given 3 opportunities for test, and the 3 highest values among the test opportunities were selected and the mean value was used as the test result. […] Psychopharmacol. 110: 92-96’.
(§2) The obtained results are shown as mean±sem. The difference between the groups was statistically analyzed by ANOVA, and then, further examined by Dunnett's test or Bonferroni test. If p is less than 0.05, it was determined that the difference between the groups had statistical significance.

[2] = test system: male mice (ICR); experiment: Muscle relaxation activity by residence time on a rotarod rotating at a fixed speed; conditions: intraperitoneal; for ED50: Mus musculus, ip, 15 rpm, max 10 min, ED50 vs vehicle only (100%), determined at 0.5 h (time of maximum effect)
Experimental: as §1
All the mice to be tested were preliminarily trained for 5 minutes on a rod rotating at the rate of 15 revolutions per a minute. The mice that could not remain on the rod without falling off therefrom for a minimum of 2 minutes were excluded from this testing. After the training, all the mice were allowed to rest for 45-60 minutes. Before the administration of the test compounds, the mice were subjected to a further training for one minute on the rod rotating under the same condition, where the mice falling off from the rod were excluded from this experimentation. […] In case a mouse stays on the rod until the test is finished, the time was recorded as 10 minutes. As test time for evaluation, a maximum of 10 minutes was applied. This experimentation was conducted according to the method described in the reference, ‘Yasuda et al. (2005) Antipyretic, analgesic and muscle relaxant activities of Pueraria isoflavonoids and their metabolites from Pueraria lobata Ohwi—a traditional Chinese drug. Biol. Pharm. Bull. 28: 1224-1228.
as §2
(§3) The results of muscle relaxation activity of the phenylalkyl sulfamate compounds measured in above Experimental Examples 1 to 43 are shown in following Table 2.

[3] = test system: male mice (ICR); experiment: Muscle relaxation activity by wire hang (wire suspension) test; conditions: intraperitoneal; for ED50: Mus musculus, ip, ED50 vs vehicle only (100%); for Wire suspension, percentage compared to the vehicle only (100%): dose 100 (unit not given)
Experimental: as §1
This experimentation was conducted using a metal wire of 30 cm in length, which was suspended between two pillars at a height of about 40 cm from the bottom covered with a soft pad. […] Each mouse was made to grip the wire using two forelimbs, and the elapse time before the mouse fell off from the wire to the pad on the bottom was recorded in seconds. Each mouse was given 5 opportunities for this test at an interval of 2 minutes period. The highest 3 records among the test opportunities were selected and the mean value was used as the test result. This experimentation was conducted according to the method described in the reference, ‘Jacqueline N. Crawley (1999) Behavioral phenotyping of transgenic and knockout mice: experimental design and evaluation of general health, sensory functions, motor abilities, and specific behavioral tests. Brain Res. 835: 18-26’.
as §2, §3

[4] = ED50 = 50% of muscle relaxation activity compared to vehicle only (100%), determined at 0.5 h (time of maximum effect)
[5] = determined at 0.5 h (time of maximum effect)

Compound	ED50 [1, 4]	ED50 [2]	Grip strength, percentage compared to the vehicle only (100%) [1]	also measured
CC1(C)O[C@H](c2ccccc2Cl)[C@@H](COS(N)(=O)=O)O1 [Example 1, ((4R,5R)-5-(2-chlorophenyl)-2,2-dimethyl-1,3-dioxolan-4-yl)methyl sulfamate]	212 mg/kg	108 mg/kg	–	ED50 [3, 5]: 96.7 mg/kg
CC1(C)OC(COS(N)(=O)=O)C(c2ccccc2Cl)O1 (centres unmarked) [Example 4, (5-(2-chlorophenyl)-2,2-dimethyl-1,3-dioxolan-4-yl)methyl sulfamate]	–	–	200 (56.5%)	Fixed rotarod, percentage of residence time compared to the vehicle only (100%) ([2]; dose 100 (unit not given)): 100 (76.6%); Wire suspension, percentage compared to the vehicle only (100%) [3]: 100 (41.3%)
CC1(C)O[C@H](c2ccccc2F)[C@@H](COS(N)(=O)=O)O1 [Example 15, ((4R,5R)-5-(2-fluorophenyl)-2,2-dimethyl-1,3-dioxolan-4-yl)methyl sulfamate]	–	–	–	Fixed rotarod, percentage of residence time compared to the vehicle only (100%) ([2]; dose 140 (unit not given)): 140(22.7%)
CC1O[C@@H](COS(N)(=O)=O)[C@H](c2ccccc2Cl)O1 (stereo partly drawn) [Example 6, ((4S,5S)-5-(2-chlorophenyl)-2-methyl-1,3-dioxolan-4-yl)methyl sulfamate]	–	–	200 (44.8%)	Fixed rotarod, percentage of residence time compared to the vehicle only (100%) ([2]; dose 100 (unit not given)): 100 (50.4%); Wire suspension, percentage compared to the vehicle only (100%) [3]: 100 (70.0%)
CC1(C)O[C@@H](COS(N)(=O)=O)[C@H](c2ccccc2Cl)O1 [Example 2, ((4S,5S)-5-(2-chlorophenyl)-2,2-dimethyl-1,3-dioxolan-4-yl)methyl sulfamate]	211 mg/kg	73.6 mg/kg	–	ED50 [3, 5]: 81.4 mg/kg
CC1(C)O[C@@H](COS(N)(=O)=O)[C@H](c2ccccc2I)O1 [Example 28, ((4S,5S)-5-(2-iodophenyl)-2,2-dimethyl-1,3-dioxolan-4-yl)methyl sulfamate]	261 mg/kg	102 mg/kg	–	Wire suspension, percentage compared to the vehicle only (100%) [3]: 100(66.8%)
CC1(C)O[C@@H](COS(N)(=O)=O)[C@H](c2ccccc2F)O1 [Example 16, ((4S,5S)-5-(2-fluorophenyl)-2,2-dimethyl-1,3-dioxolan-4-yl)methyl sulfamate]	161 mg/kg	–	–	ED50 [3, 5]: 99.1 mg/kg
NS(=O)(=O)OCC[C@H]1OC2(CCCCC2)O[C@@H]1Cc1ccccc1Cl [Example 144, 2-((2R,3R)-3-(2-chlorobenzyl)-1,4-dioxaspiro[4,5]decan-2-yl)ethyl sulfamate]	–	–	200 (62.0%)	–
CC1(C)OC(COS(N)(=O)=O)C(c2ccccc2Cl)O1 (centres unmarked) [Example 3, (5-(2-chlorophenyl)-2,2-dimethyl-1,3-dioxolan-4-yl)methyl sulfamate]	–	99.2 mg/kg	–	ED50 ([1]; ED50 vs vehicle only (100%), determined at 0.25 h (time of maximum effect)): 205 mg/kg; ED50 ([3]; determined at 1 h (time of maximum effect)): 116 mg/kg
CC1(C)O[C@@H](COS(N)(=O)=O)[C@H](c2ccc(Cl)cc2Cl)O1 [Example 40, ((4S,5S)-5-(2,4-dichlorophenyl)-2,2-dimethyl-1,3-dioxolan-4-yl)methyl sulfamate]	–	–	200 (79.3%)	–
Nc1ccccc1[C@@H]1OC2(CCCCC2)O[C@H]1COS(N)(=O)=O [Example 74, ((2S,3S)-3-(2-aminophenyl)-1,4-dioxaspiro[4,5]decan-2-yl)methyl sulfamate]	–	–	200 (88.1%)	–
CC1(C)O[C@@H](CCOS(N)(=O)=O)[C@H](c2ccccc2Cl)O1 [Example 154, ((4S,5S)-5-(2-chlorophenyl)-2,2-dimethyl-1,3-dioxolan-4-yl)ethyl sulfamate]	–	–	200 (70.4%)	–
CC1(C)O[C@@H](COS(N)(=O)=O)[C@H](c2c(Cl)cccc2Cl)O1 [Example 52, ((4S,5S)-5-(2,6-dichlorophenyl)-2,2-dimethyl-1,3-dioxolan-4-yl)methyl sulfamate]	–	–	200 (28.2%)	–

Reference: patent US9221783B2, “Phenylalkyl sulfamate compound and muscle relaxant composition comprising the same” (BIO-PHARM SOLUTIONS CO., LTD., priority 2012, dated 2015)
